Values of other authors as cited in paper PMC6168745 (Diabetes, Obesity & Metabolism, 2016).

Tests used:
[1] = system: participants with type 2 diabetes; details: + insulin glargine + metformin; CGM
[2] = system: people with type 2 diabetes

Row | Substance | glucose CV and MAGE compared with prandial insulin [1] | MAGE, large amplitude of glycaemic excursions and within-day s.d. of mean daily glucose ([2]; once daily, comparative trials with insulin) | MAGE from baseline ([2]; small uncontrolled study of Japanese people with type 2 diabetes)
1 | exenatide [Twice‐daily exenatide] | significantly reduced | – | –
2 | liraglutide | – | significantly reduced | significantly reduced
